Test results from patent US20200054058A1, “Sweetness and Taste Improvement of Steviol Glycoside and Mogroside Sweeteners with Dihydrochalcones” (The Coca-Cola Company, priority 2017, published 2020).
Read-outs that look alike come from different tables or passages of the source.

Experiments:
[1] = system: panelists; settings: 250 ppm 1,6-α-isomer of Siamenoside I in acidic water; one panelist; slightly less
[2] = system: panelist; settings: Isomer of Siamenoside I in acidic water (100 ppm, Table 4); one panelist
From the text: The panelist was asked to evaluate the sweetness of the samples against the 3%, 5%, and 8% sucrose solutions and describe the taste profiles.

[3] = system: panelists; assay: Sensory tasting of mock beverages with Reb-J, Reb-N, Reb-O, Reb-M with and without CC-00800 against sucrose references (Example 6); type: in vivo, human; settings: for enhancement of overall sweetness by hesperitin dihydrochalcone: 10 ppm hesperitin dihydrochalcone added to the steviol glycoside beverage, all panelists; for sweetness and bitterness rank among Reb-J, Reb-N, Reb-O, Reb-M: mock beverages without hesperitin dihydrochalcone
Description: Steviol glycosides, namely Reb-J, Reb-N, Reb-M, Reb-O with 95% purity were purchased from commercial sources.
A 6% stock solution of CC-00800 (hesperitin dihydrochalcone, “HDC”) was made in propylene glycol (PG) food grade and used in subsequent experiments.
Acidified mock beverages (100 grams) were made using the following ingredients (in grams) in order:
All ingredients were dissolved in carbon-filtered water and the resulting beverage was filled in 300 ml glass bottles and immediately refrigerated (4° C.). Beverages were bench tasted when cold.
Four experienced panelists bench tasted the beverages blindly. Each panelist was given warm bottled water and unsalted crackers to eat and rinse the palate between samples. A maximum of 3 samples was tasted at each session to avoid fatigue.
The first session consisted of tasting beverages without hesperitin dihydrochalcone.
The second session consisted of tasting the beverages with hesperitin dihydrochalcone added (10 ppm). All panelists agreed that hesperitin dihydrochalcone enhanced the overall sweetness for about 1 Brix for Reb-J, Reb-O, and Reb-N, while Reb-M was enhanced with about 2.5 Brix.

[4] = system: panelists; assay: Taste evaluation of NHDC with rebaudioside M in acidic water against sucrose solutions (Example 2); type: in vivo, human; settings: both panelists
From the text: First, the panelists assessed the sweetness of 5 ppm of NHDC in acidic water against 1.5% sucrose solution in acidic water.
Next, panelists compared the sweetness profile of (i) a sample containing 150 ppm rebaudioside M and (ii) a sample containing 5 ppm NHDC and 150 rebaudioside M to the 6%, 8%, and 10% sucrose solutions.

[5] = system: panelist; assay: Taste evaluation of phloretin with rebaudioside M in acidic water against sucrose solutions (Example 1); type: in vivo, human; settings: one panelist
From the text: First, the panelist assessed the sweetness of 40 ppm of phloretin in acidic water against a 1.5% sucrose solution in acidic water. 40 ppm of phloretin was reported to have a sweetness less than the sweetness of the 1.5% sucrose solution.
Next, the panelist compared the sweetness profile of (i) the sample containing 150 ppm rebaudioside M in acidic water and (ii) the sample containing 40 ppm phloretin and 150 ppm rebaudioside M in acidic water to the 5%, 7%, 8%, 9%, and 10% sucrose solutions.

[6] = system: panelists; type: in vivo, human; settings: 250 ppm Rebaudioside M in acidic water; for sweetness in sucrose equivalents: slightly less sweet
[7] = system: panelists; assay: Bench tasting of acidified mock beverages, CC-00800 + Reb-M (Example 5); type: in vivo, human; settings: 472 ppm Reb-M, control mock beverage (Bev. #7); five panelists
Description: Rebaudioside M was acquired from Pure Circle (86% Reb-M, 9% Reb-D, 0.8% Reb-A, plus other steviol glycosides in minor amount).
A 6% stock solution of Hesperetin Dihydrochalcone (CC-00800) was made in propylene glycol (PG) food grade and used in subsequent experiments.
Acidified mock beverages (300 grams) were made using the following ingredients (in grams) in order:
All ingredients were dissolved in carbon-filtered water and the resulting beverage was filled in 300 ml glass bottles and immediately refrigerated (4° C.). Beverages were bench tasted next morning.
Five experienced panelists bench tasted the beverages blindly. Each panelist was given warm bottled water and unsalted crackers to eat and rinse the palate between samples. A maximum of 3 samples was tasted at each session to avoid fatigue.

[8] = system: panelists; assay: Taste evaluation of hesperetin dihydrochalcone with rebaudioside M in acidic water against sucrose solutions (Example 3); type: in vivo, human; settings: 150 ppm rebaudioside M in acidic water; both panelists; slightly less sweet
From the text: Panelists compared the sweetness profile of (i) a sample containing 150 ppm rebaudioside M and (ii) a sample containing 40 ppm hesperetin dihydrochalcone and 150 ppm rebaudioside M to the 4%, 6%, 8%, and 10% sucrose solutions.

[9] = system: panelists; settings: 250 ppm Siamenoside I in acidic water; one panelist
[10] = system: panelists; assay: Taste evaluation of hesperetin dihydrochalcone with siamenoside I in acidic water against sucrose solutions (Example 4); type: in vivo, human; settings: 150 ppm siamenoside I in acidic water; both panelists; slightly less sweet
From the text: Panelists compared the sweetness profile of (i) a sample containing 150 ppm siamenoside I and (ii) a sample containing 40 ppm hesperetin dihydrochalcone and 150 ppm siamenoside I to the 4%, 6%, 8%, and 10% sucrose solutions.

[11] = 10 ppm hesperitin dihydrochalcone added
[12] = 150 ppm rebaudioside M in acidic water

## C[C@H](CC[C@@H](O[C@@H]1O[C@H](CO[C@H]2O[C@H](CO)[C@@H](O)[C@H](O)[C@H]2O)[C@@H](O)[C@H](O)[C@H]1O[C@@H]1O[C@H](CO)[C@@H](O)[C@H](O)[C@H]1O)C(C)(C)O)[C@H]1CC[C@@]2(C)[C@@H]3CC=C4[C@@H](CC[C@H](O[C@@H]5O[C@H](CO)[C@@H](O)[C@H](O)[C@H]5O)C4(C)C)[C@]3(C)[C@H](O)C[C@]12C [1,6-α-isomer of Siamenoside I, mogro-3-O-[β-D-glucopyranoside]-24-O-{[β-D-glucopyranosyl-(1→2)]-[α-D-glucopyranosyl-(1→6)]-β-O-D-glucopyranoside}]
[1]
  sweetness in sucrose equivalents: less than 7 % sucrose
[2]
  sweetness against sucrose solutions: ~4 % sucrose

## COc1ccc(CCC(=O)c2c(O)cc(O)cc2O)cc1O [Hesperitin dihydrochalcone, 3-(3-Hydroxy-4-methoxyphenyl)-1-(2,4,6-trihydroxyphenyl)-1-propanone]
[3]; [11]
  effect on bitterness and other off-notes of steviol glycoside beverages: reduced significantly
  effect on mouth feel of steviol glycoside beverages: improved

## COc1ccc(CCC(=O)c2c(O)cc(O[C@@H]3O[C@H](CO)[C@@H](O)[C@H](O)[C@H]3O[C@@H]3O[C@@H](C)[C@H](O)[C@@H](O)[C@H]3O)cc2O)cc1O [NHDC, 1-[4-[[(2S,3R,4S,5S,6R)-4,5-Dihydroxy-6-(hydroxymethyl)-3-[[(2S,3R,4R,5R,6S)-3,4,5-trihydroxy-6-methyl-2-tetrahydropyranyl]oxy]-2-tetrahydropyranyl]oxy]-2,6-dihydroxyphenyl]-3-(3-hydroxy-4-methoxyphenyl)propan-1-one]
[4]; 5 ppm NHDC in acidic water
  sweetness against sucrose solution: < 1.5 % sucrose

## C=C1C[C@@]23CC[C@H]4[C@@](C)(CCC[C@@]4(C)C(=O)O[C@@H]4O[C@H](CO)[C@@H](O)[C@H](O)[C@H]4O[C@@H]4O[C@@H](C)[C@H](O)[C@@H](O)[C@H]4O)[C@@H]2CC[C@]1(O[C@@H]1O[C@H](CO)[C@@H](O)[C@H](O[C@@H]2O[C@H](CO)[C@@H](O)[C@H](O)[C@H]2O)[C@H]1O[C@@H]1O[C@H](CO)[C@@H](O)[C@H](O)[C@H]1O)C3 [Reb-J, rebaudioside J]
[3]
  enhancement of overall sweetness by hesperitin dihydrochalcone: about 1 Brix
  sweetness and bitterness rank among Reb-J, Reb-N, Reb-O, Reb-M: least sweet and most bitter

## C=C1C[C@@]23CC[C@H]4[C@@](C)(CCC[C@@]4(C)C(=O)O[C@@H]4O[C@H](CO)[C@@H](O)[C@H](O[C@@H]5O[C@H](CO)[C@@H](O)[C@H](O)[C@H]5O)[C@H]4O[C@@H]4O[C@@H](C)[C@H](O)[C@@H](O)[C@H]4O)[C@@H]2CC[C@]1(O[C@@H]1O[C@H](CO)[C@@H](O)[C@H](O[C@@H]2O[C@H](CO)[C@@H](O)[C@H](O)[C@H]2O)[C@H]1O[C@@H]1O[C@H](CO)[C@@H](O)[C@H](O)[C@H]1O)C3 [Reb-N, rebaudioside N]
[3]
  enhancement of overall sweetness by hesperitin dihydrochalcone: about 1 Brix

## C=C1C[C@@]23CC[C@H]4[C@@](C)(CCC[C@@]4(C)C(=O)O[C@@H]4O[C@H](CO)[C@@H](O)[C@H](O[C@@H]5O[C@H](CO)[C@@H](O)[C@H](O)[C@H]5O)[C@H]4O[C@@H]4O[C@@H](C)[C@H](O)[C@@H](O[C@@H]5O[C@H](CO)[C@@H](O)[C@H](O)[C@H]5O)[C@H]4O)[C@@H]2CC[C@]1(O[C@@H]1O[C@H](CO)[C@@H](O)[C@H](O[C@@H]2O[C@H](CO)[C@@H](O)[C@H](O)[C@H]2O)[C@H]1O[C@@H]1O[C@H](CO)[C@@H](O)[C@H](O)[C@H]1O)C3 [Reb-O, rebaudioside O]
[3]
  enhancement of overall sweetness by hesperitin dihydrochalcone: about 1 Brix

## O=C(CCc1ccc(O)cc1)c1c(O)cc(O)cc1O [phloretin, 3-(4-hydroxyphenyl)-1-(2,4,6-trihydroxyphenyl)propan-1-one]
[5]; 40 ppm phloretin in acidic water
  sweetness against sucrose solution: < 1.5 % sucrose

## C=C1C[C@@]23CC[C@H]4[C@@](C)(CCC[C@@]4(C)C(=O)O[C@@H]4O[C@H](CO)[C@@H](O)[C@H](O[C@@H]5O[C@H](CO)[C@@H](O)[C@H](O)[C@H]5O)[C@H]4O[C@@H]4O[C@H](CO)[C@@H](O)[C@H](O)[C@H]4O)[C@@H]2CC[C@]1(O[C@@H]1O[C@H](CO)[C@@H](O)[C@H](O[C@@H]2O[C@H](CO)[C@@H](O)[C@H](O)[C@H]2O)[C@H]1O[C@@H]1O[C@H](CO)[C@@H](O)[C@H](O)[C@H]1O)C3 [rebaudioside M]
[4]; [12]
  sweetness against sucrose solutions: 6 % sucrose
[6]; both panelists
  sweetness and mouthfeel compared with sample also containing Hesperetin dihydrochalcone-4′-beta-D-glucoside: less sweet and less mouthfeel
[6]; one panelist
  sweetness in sucrose equivalents: < 7 % sucrose
[6]; the other panelist
  sweetness in sucrose equivalents: < 8 % sucrose
[5]; [12]
  sweetness against sucrose solutions: 6 % sucrose
[3]
  enhancement of overall sweetness by hesperitin dihydrochalcone: about 2.5 Brix
  sweetness and bitterness rank among Reb-J, Reb-N, Reb-O, Reb-M: sweetest
[7]
  aftertaste of control: sweet lingering, licorice and bitter aftertaste observed in the control
[8]
  sweetness against sucrose solutions: < 6 % sucrose

## C[C@H](CC[C@@H](O[C@@H]1O[C@H](CO[C@@H]2O[C@H](CO)[C@@H](O)[C@H](O)[C@H]2O)[C@@H](O)[C@H](O)[C@H]1O[C@@H]1O[C@H](CO)[C@@H](O)[C@H](O)[C@H]1O)C(C)(C)O)[C@H]1CC[C@@]2(C)[C@@H]3CC=C4[C@@H](CC[C@H](O[C@@H]5O[C@H](CO)[C@@H](O)[C@H](O)[C@H]5O)C4(C)C)[C@]3(C)[C@H](O)C[C@]12C [siamenoside I]
[9]
  sweetness in sucrose equivalents: ~6 % sucrose
[10]
  sweetness against sucrose solutions: < 6 % sucrose
